Test results: publication PMC13476069, “Cryo-EM structure of the bicarbonate receptor GPR30” (eLife, 2026)

Assays:
[1] = molecular target: T1, human GPR30 wild-type (WT) (Homo sapiens, UniProt Q99527); conditions: stable HEK293, HA-tagged WT GPR30, NaHCO3, four-parameter fit
Description: (§1) Human Gpr30 cDNA was obtained from human hepatoblastoma-derived HepG2 cells. The coding sequences of human Gpr30 were inserted into the multi-cloning site of the plasmid vector pCXN2, which was generated in our laboratory via modification of pCAGGS, between the KpnI and EcoRI sites. The […] HA-tagged Gpr30 was amplified using a reverse primer containing the HA sequence. One amino acid mutation of human GPR30 was generated as follows: the targeted amino acid was changed to alanine (GCC) using a two-step PCR method with the QuikChange Primer Design Program by Agilent (https://www.agilent.com/store/primerDesignProgram.jsp), and the coding sequence with each mutation was inserted into the multi-cloning site of pCXN2 between the KpnI and EcoRI sites. The mutations generated were D111A, E121A, R122A, D125A, S134A, Q138A, D210A, Q215A, E218A, N276A, Q296A, C207A, P71A, and H307A.
(§2) HEK293A cells (Thermo Fisher Scientific, Cell lines are authenticated by the supplier. No additional authentication was performed by the authors in this study. Mycoplasma contamination is not tested.) were maintained at 37°C and 5% CO2. […] Stable cell lines were established through antibiotic drug selection. The HEK293A cells were transfected with the N-terminal HA-tagged wild-type and mutant Gpr30 and maintained in the culture medium containing 1 mg/ml of G418.
(§3) Stable HEK293 cells (2×10^4 cells/well) were seeded into a black wall and clear bottom 96-well plate 24 hr before the assay. […] The cells were washed twice with HEPES buffer. The cells were stimulated with indicated concentrations of NaHCO3 and 50 µM ATP at 37°C and 0.03% CO2. The fluorescence intensity was analyzed using FlexStation 3 (Molecular Devices, Ex/Em = 490/525 nm). The difference between the maximum and minimum fluorescent values during 15–60 s was normalized by those with ATP stimulation. Nonlinear regression (four-parameter) was used for curve fitting, and EC50 and Top (maximum response) were calculated.
(§4) Nonlinear regression (four-parameter) was used for curve-fitting over the data shown in Figure 3F, and EC50 and Top (maximum response) were calculated. The values of cell surface and total expression are derived from Figure 3.—figure supplement 1 and 3, respectively.

[2] = molecular target: human GPR30 D111^2.56A mutant (Homo sapiens, UniProt Q99527, D111A); conditions: stable HEK293, HA-tagged D111^2.56A, NaHCO3, four-parameter fit
Description: as §1, §2, §3, §4

[3] = molecular target: human GPR30 N276^6.52A mutant (Homo sapiens, UniProt Q99527, N276A); conditions: stable HEK293, HA-tagged N276^6.52A, NaHCO3, four-parameter fit
Description: as §1, §2, §3, §4

[4] = molecular target: T2, human GPR30 Q138^3.33A mutant (Homo sapiens, UniProt Q99527, Q138A)
Description: as §1, §2, §3, §4

[5] = molecular target: human GPR30 S134^3.29A mutant (Homo sapiens, UniProt Q99527, S134A); conditions: stable HEK293, HA-tagged S134^3.29A, NaHCO3, four-parameter fit
Description: as §1, §2, §3, §4

[6] = molecular target: human GPR30 Q215^5.39A mutant (Homo sapiens, UniProt Q99527, Q215A); conditions: stable HEK293, HA-tagged Q215^5.39A, NaHCO3, four-parameter fit
Description: as §1, §2, §3, §4

[7] = molecular target: human GPR30 Q296^ECL3A mutant (Homo sapiens, UniProt Q99527, Q296A); conditions: stable HEK293, HA-tagged Q296^ECL3A, NaHCO3, four-parameter fit
Description: as §1, §2, §3, §4

[8] = molecular target: human GPR30 C207^ECL2A mutant (Homo sapiens, UniProt Q99527, C207A)
Description: as §1, §2, §3, §4

[9] = molecular target: human GPR30 E121^ECL1A mutant (Homo sapiens, UniProt Q99527, E121A); conditions: stable HEK293, HA-tagged E121^ECL1A, NaHCO3, four-parameter fit
Description: as §1, §2, §3, §4

[10] = molecular target: human GPR30 E218^5.42A mutant (Homo sapiens, UniProt Q99527, E218A); conditions: stable HEK293, HA-tagged E218^5.42A, NaHCO3, four-parameter fit
Description: as §1, §2, §3, §4

[11] = molecular target: human GPR30 R122^ECL1A mutant (Homo sapiens, UniProt Q99527, R122A); conditions: stable HEK293, HA-tagged R122^ECL1A, NaHCO3, four-parameter fit
Description: as §1, §2, §3, §4

[12] = molecular target: human GPR30 D125^ECL1A mutant (Homo sapiens, UniProt Q99527, D125A)
Description: as §1, §2, §3, §4

[13] = molecular target: human GPR30 D210^ECL2A mutant (Homo sapiens, UniProt Q99527, D210A)
Description: as §1, §2, §3, §4

[14] = molecular target: human GPR30 P71^1.44A mutant (Homo sapiens, UniProt Q99527, P71A)
Description: as §1, §2, §3, §4

GPR30 H307^7.36 mutant = conditions: effect of H307^7.36 mutation; ref Jo-Watanabe et al., 2024; cited from earlier work
mock HEK293 cells = conditions: mock stable HEK293 cells; NaHCO3; normalized to 50 µM ATP; four-parameter fit
Procedure: as §2, §3, §4

[15] = molecular target: T2, human GPR30 Q138^3.33A mutant; conditions: effect of Q138^3.33 mutation; ref Jo-Watanabe et al., 2024; cited from earlier work
GPR30 E115^2.61 mutant = conditions: effect of E115^2.61 mutation; ref Jo-Watanabe et al., 2024; cited from earlier work
[16] = molecular target: T1, human GPR30 wild-type (WT); conditions: physiological concentration of bicarbonate ions; ref Jo-Watanabe et al., 2024; cited from earlier work
[17] = Q138^3.33A vs wild-type, calcium assay
[18] = stable HEK293, HA-tagged Q138^3.33A, NaHCO3, four-parameter fit
[19] = stable HEK293, HA-tagged D125^ECL1A, NaHCO3, four-parameter fit
[20] = stable HEK293, HA-tagged D210^ECL2A, NaHCO3, four-parameter fit

Sequence of human GPR30 N276^6.52A mutant (Q99527 whole entry N276A): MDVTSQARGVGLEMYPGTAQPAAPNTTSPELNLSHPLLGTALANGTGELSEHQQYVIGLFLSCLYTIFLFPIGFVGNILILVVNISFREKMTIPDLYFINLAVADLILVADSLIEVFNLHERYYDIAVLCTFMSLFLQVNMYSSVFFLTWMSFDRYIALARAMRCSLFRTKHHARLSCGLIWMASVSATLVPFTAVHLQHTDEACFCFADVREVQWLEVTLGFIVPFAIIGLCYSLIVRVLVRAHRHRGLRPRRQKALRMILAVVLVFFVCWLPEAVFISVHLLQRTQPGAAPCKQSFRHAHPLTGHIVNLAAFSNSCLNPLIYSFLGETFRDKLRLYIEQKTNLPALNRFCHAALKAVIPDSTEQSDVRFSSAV
Sequence of human GPR30 Q296^ECL3A mutant (Q99527 whole entry Q296A): as the sequence (Q99527 whole entry N276A) above, with A276N, Q296A counted along it
Sequence of human GPR30 S134^3.29A mutant (Q99527 whole entry S134A): as the sequence (Q99527 whole entry N276A) above, with S134A, A276N counted along it
T2 sequence (Q99527 whole entry Q138A): as the sequence (Q99527 whole entry N276A) above, with Q138A, A276N counted along it
T1 sequence (Q99527 whole entry): as the sequence (Q99527 whole entry N276A) above, with A276N counted along it
Sequence of human GPR30 E121^ECL1A mutant (Q99527 whole entry E121A): as the sequence (Q99527 whole entry N276A) above, with E121A, A276N counted along it
Sequence of human GPR30 D111^2.56A mutant (Q99527 whole entry D111A): as the sequence (Q99527 whole entry N276A) above, with D111A, A276N counted along it
Sequence of human GPR30 R122^ECL1A mutant (Q99527 whole entry R122A): as the sequence (Q99527 whole entry N276A) above, with R122A, A276N counted along it
Sequence of human GPR30 Q215^5.39A mutant (Q99527 whole entry Q215A): as the sequence (Q99527 whole entry N276A) above, with Q215A, A276N counted along it
Sequence of human GPR30 E218^5.42A mutant (Q99527 whole entry E218A): as the sequence (Q99527 whole entry N276A) above, with E218A, A276N counted along it
Sequence of human GPR30 D210^ECL2A mutant (Q99527 whole entry D210A): as the sequence (Q99527 whole entry N276A) above, with D210A, A276N counted along it
Sequence of human GPR30 D125^ECL1A mutant (Q99527 whole entry D125A): as the sequence (Q99527 whole entry N276A) above, with D125A, A276N counted along it
Sequence of human GPR30 C207^ECL2A mutant (Q99527 whole entry C207A): as the sequence (Q99527 whole entry N276A) above, with C207A, A276N counted along it
Sequence of human GPR30 P71^1.44A mutant (Q99527 whole entry P71A): as the sequence (Q99527 whole entry N276A) above, with P71A, A276N counted along it

## O=C(O)O [bicarbonate]
[1]
  EC50: 3.83 mM
  LogEC50: 0.5838
[1]; normalized to 50 µM ATP
  Top (maximum response): 1.155
[2]
  EC50: 2.35 mM
  LogEC50: 0.3703
[2]; normalized to 50 µM ATP
  Top (maximum response): 1.244
[3]
  EC50: 2.89 mM
  LogEC50: 0.4605
[3]; normalized to 50 µM ATP
  Top (maximum response): 0.948
[4]; [17]
  EC50 compared with wild-type GPR30: higher
  maximum response relative to GPR30 wild-type: one-third
[4]; effect of Q138^3.33A mutation, stable HEK293
  reactivity to bicarbonate (calcium response): reduced reactivity
[4]; [18]
  EC50: 10.8 mM
  LogEC50: 1.033
[4]; stable HEK293, HA-tagged Q138^3.33A, NaHCO3, normalized to 50 µM ATP, four-parameter fit
  Top (maximum response): 0.4166
[5]
  EC50: 4.97 mM
  LogEC50: 0.6966
[5]; normalized to 50 µM ATP
  Top (maximum response): 0.8079
[6]
  EC50: 4.51 mM
  LogEC50: 0.6544
[6]; normalized to 50 µM ATP
  Top (maximum response): 0.8471
[7]
  EC50: 3.09 mM
  LogEC50: 0.4903
[7]; normalized to 50 µM ATP
  Top (maximum response): 0.9637
[8]; effect of C207^ECL2A mutation, stable HEK293
  bicarbonate-dependent calcium responses: abolished
[8]; stable HEK293, HA-tagged C207^ECL2A, NaHCO3, normalized to 50 µM ATP, four-parameter fit
  Top (maximum response): 0.06277
[9]
  EC50: 4.71 mM
  LogEC50: 0.6733
[9]; normalized to 50 µM ATP
  Top (maximum response): 0.9457
[10]
  EC50: 3.72 mM
  LogEC50: 0.5701
[10]; normalized to 50 µM ATP
  Top (maximum response): 0.9426
[11]
  EC50: 3.46 mM
  LogEC50: 0.5393
[11]; normalized to 50 µM ATP
  Top (maximum response): 0.877
[12]; effect of D125^ECL1A mutation, stable HEK293
  bicarbonate-dependent calcium responses: abolished
[12]; [19]
  EC50: Unstable
  LogEC50: Unstable
[12]; stable HEK293, HA-tagged D125^ECL1A, NaHCO3, normalized to 50 µM ATP, four-parameter fit
  Top (maximum response): 0.0868
[13]; D210^ECL2A vs wild-type, calcium assay
  maximum response relative to GPR30 wild-type: half
[13]; effect of D210^ECL2A mutation, stable HEK293
  reactivity to bicarbonate (calcium response): reduced reactivity
[13]; [20]
  EC50: 5.41 mM
  LogEC50: 0.7335
[13]; stable HEK293, HA-tagged D210^ECL2A, NaHCO3, normalized to 50 µM ATP, four-parameter fit
  Top (maximum response): 0.6256
[14]; effect of P71^1.44A mutation, stable HEK293
  bicarbonate-dependent calcium responses: abolished
[14]; stable HEK293, HA-tagged P71^1.44A, NaHCO3, normalized to 50 µM ATP, four-parameter fit
  Top (maximum response): 0.1079
GPR30 H307^7.36 mutant
  bicarbonate-dependent calcium response: abolish
Mock HEK293 cells
  Top (maximum response): 0.08132
[15]
  bicarbonate-dependent calcium response: abolish
GPR30 E115^2.61 mutant
  bicarbonate-dependent calcium response: abolish
[16]
  activation of GPR30, Gq-coupled calcium responses: activates
